Reference: patent US6699877B2 (Gruenenthal GmbH, priority 2000, dated 2004)

Key:
[1] = target: T1, glycine binding site of the NMDA receptor channel (Rattus norvegicus, UniProt P35439); experiment: Receptor binding, displacement of (3H)-MDL 105.519 on rat cerebral membrane homogenates; conditions: 1 nmol/l (3H)-MDL 105.519
T1 construct: from tissue; host or cells: rat brain cortex and hippocampus membrane homogenate

[2] = test system: formalin-induced nociception; experiment: Formalin test, rat (second/late phase); type: in vivo; conditions: i.p., 21.5 mg/kg, late phase
Description: Experiments to determine the antinociceptive activity of the compounds according to the invention of Formula I were carried out in the formalin test on male rats (Sprague-Dawley, 150-170 g).
In the formalin test, the first (early) phase (0-15 min after formalin injection) was distinguished from the second (late) phase (15-60 min after formalin injection) (D. Dubuisson, S. G. Dennis, Pain 4, 161-174 (1977)). The early phase, as a direct reaction to the formalin injection, represents a model for acute pain while the late phase is considered as a model for persistent (chronic) pain (T. J. Coderre, J. Katz, A. L. Vaccarino, R. Melzack, Pain, Vol. 52, p. 259,1993).
The compounds according to the invention were investigated in the second phase of the formalin test to obtain information about the effects of substances in chronic/inflammatory pain.
A nociceptive reaction was induced in freely moving experimental animals by a single subcutaneous formalin injection (50 μl, 5%) into the dorsal side of the back right paw, the nociceptive reaction being portrayed by the following behavioral parameters: lifting and holding the respective paw (Score 1), shaking and twitching (Score 2), licking and biting (Score 3). The different behavioral patterns triggered by the formalin injection were recorded continuously by observing the animals in the late phase of the formalin test and were weighted differently in an evaluation. Normal behavior in which the animal loads all four paws uniformly was recorded as score 0. The moment of administration prior to the formalin injection was selected according to the method of administration of the compounds according to the invention (intraperitoneal: 15 min, intravenous: 5 min). The described behavioral patterns (Score 1 to 3) in the animals are reduced and possibly even eliminated after injection of substances which have an antinociceptive effect in the formalin test. A comparisom was made with control animals which had received vehicles (solvents) prior to formalin administration. The nociceptive behavior was calculated as a so-called pain rate (PR). The various behavioral parameters received a different weighting (Factor 0, 1, 2, 3). Calculation took place at partial intervals of 3 min according to the following formula:
Substance and vehicle groups include n=10 animals in each case. The effect of the substance was determined as a percentage change versus control on the basis of the PR calculations. The ED50 calculations were made by regression analysis.

- inhibition at 10 µM ([1]; 10 μmol/l test substance, read-out: Displacement (%, 10 μmol/l) of radioactive ligand from specific binding): 100%
- Ki ([1]; mean from three independent experiments, from IC50 by Cheng-Prussoff equation): 300 nM
SMILES: O=C(O)C1Nc2cc(Cl)cc(Cl)c2C2C=CCC12 (stereo not drawn) [Example 2, 7,9-dichloro-3a,4,5,9b-tetrahydro-3H-cyclopenta[c]quinoline-4-carboxylic Acid]
- % inhibition of formalin-induced nociception [2]: 64.5%
